Laboratory results published in patent EP0604800A1, “4- 4- 4-(carboxyalkyl)-phenyl amino carbonyl -phenyl -piperedines as aggregation inhibitors” (Dr. Karl Thomae GmbH, priority 1992, dated 1994).
Counter-ions that a name gives are not always drawn.

Columns and labels:
Humanthrombozyten = test: Competitive binding of ³H-BIBU 52 / test substance to human platelets; conditions: platelet suspension in plasma, ³H-BIBU 52 5 nM, 20 min at room temperature; read-out: Kompetitive Bindung ³H-BIBU 52/Textsubstanz an Humanthrombozyten IC₅₀ (converted)
Text: 1. Kompetitive Bindung ³H-BIBU 52/Testsubstanz an Humanthrombozyten:
Eine Suspension von Humanthrombozyten in Plasma wird mit ³H-BIBU 52 [= (3S,5S)-5-[(4'-Amidino-4-biphenylyl)oxymethyl]-3-[(carboxyl)methyl]-2-pyrrolidinon[3-³H-4-biphenylyl]), das den literaturbekannten Liganden ¹²⁵ I-Fibrinogen ersetzt, (siehe deutsche Patentanmeldung P 42 14 245.8 der gleichen Anmelderin vom 30. 04. 1992, internes Zeichen: Case 5/1093-FL) und verschiedenen Konzentrationen der zu testenden Substanz inkubiert. Der freie und gebundene Ligand wird durch Zentrifugation getrennt und durch Szintillationszählung quantitativ bestimmt. Aus den Meßwerten wird die Hemmung der ³H-BIBU 52-Bindung durch die Testsubstanz bestimmt.
Hierzu wird aus einer Antikubitalvene Spenderblut entnommen und mit Trinatriumzitrat antikoaguliert (Endkonzentration 13 mM). Das Blut wird 10 Minuten bei 170 x g zentrifugiert und das überstehende plättchenreiche Plasma (PRP) abgenommen. Das Restblut wird zur Gewinnung von Plasma nocheinmal scharf abzentrifugiert. Das PRP wird mit autologem Plasma 1:10 verdünnt. 750 µl werden mit 50 µl physiologischer Kochsalzlösung, 100 µl Testsubstanzlösung, 50 µl ¹⁴C-Sucrose (3.700 Bq) und 50 µl ³H-BIBU 52 (Endkonzentration: 5 nM) bei Raumtemperatur 20 Minuten inkubiert. Zur Messung der unspezifischen Bindung wird anstelle der Testsubstanz 5 µl BIBU 52 (Endkonzentration: 30 µM) eingesetzt. Die Proben werden 20 Sekunden bei 10000 x g zentrifugiert und der Überstand abgezogen. 100 µl hiervon werden zur Bestimmung des freien Liganden gemessen. Das Pellet wird in 500 µl 0,2N NaOH gelöst, 450 µl werden mit 2 ml Szintillator und 25 µl 5N HCl versetzt und gemessen. Das im Pellet noch verbliebene Restplasma wird aus dem ¹⁴C-Gehalt bestimmt, der gebundene Ligand aus der ³H-Messung. Nach Abzug der unspezifischen Bindung wird die Pelletaktivität gegen die Konzentration der Testsubstanz aufgetragen und die Konzentration für eine 50%ige Hemmung der Bindung ermittelt.

Thrombozytenaggregation = test: Collagen-induced platelet aggregation in platelet-rich plasma (Born and Cross); assay type: cell-based, Versuchspersonen; conditions: 10 min preincubation at 37°C, half-maximal inhibition of change in optical density, read-out: Hemmung der Plättchenaggregation EC₅₀ (converted)
Text: 2. Antithrombotische Wirkung Methodik Die Thrombozytenaggregation wird nach der Methode von Born und Cross (J. Physiol. 170, 397 (1964)) in plättchenreichem Plasma gesunder Versuchspersonen gemessen. Zur Gerinnungshemmung wird das Blut mit Natriumcitrat 3,14 % im Volumenverhältnis 1:10 versetzt. Collagen-induzierte Aggregation Der Verlauf der Abnahme der optischen Dichte der Plättchen-Suspension wird nach Zugabe der aggregationsauslösenden Substanz photometrisch gemessen und registriert. Aus dem Neigungswinkel der Dichtekurve wird auf die Aggregationsgeschwindigkeit geschlossen. Der Punkt der Kurve, bei dem die größte Lichtdurchlässigkeit vorliegt, dient zur Berechnung der "optical density". Die Collagen-Konzentration wird möglichst gering gewählt, aber doch so, daß sich eine irreversibel verlaufende Reaktionskurve ergibt. Verwendet wird das handelsübliche Collagen der Firma Hormonchemie, München. Vor der Collagen-Zugabe wird das Plasma jeweils 10 Minuten mit der Substanz bei 37°C inkubiert. Aus den Konzentrations-Wirkungskurven wird die EC₅₀ berechnet, die die Konzentration beschreibt, bei der die Änderung der "optical density" halbmaximal gehemmt ist.

[1] = test system: Collagen-induzierte Thrombozytenaggregation; test: Ex vivo inhibition of collagen-induced platelet aggregation after oral administration; assay type: in vivo, Rhesusaffen; conditions: 1 mg/kg, Rhesus monkeys, collagen 2 µg/ml
Text: Die Hemmung der Thrombozytenaggregation nach oraler Gabe der Prüfsubstanz wird ex vivo an Rhesusaffen ermittelt.
Direkt vor der oralen Verabreichung der in Natrosol suspendierten Prüfsubstanz wird den Tieren eine Blutprobe aus der Kubitalvene als Referenzwert entnommen. Zu definierten Zeiten nach der Substanzgabe werden erneut Blutproben gewonnen und wie folgt untersucht.
Das mit 3,14% Natriumcitrat im Volumenverhältnis 1:10 versetzte Vollblut wird mit 200 g für 15 Minuten zentrifugiert. Der Überstand an plättchenreichem Plasma wird vorsichtig abgehoben. Aus dem erythrozytenreichen Sediment wird durch Zentrifugation mit 4000 g für 10 Minuten das plättchenarme Plasma als Überstand gewonnen.
Die mit Collagen (Hormonchemie, München; 2 µg/ml Endkonzentration im plättchenreichen Plasma) ausgelöste Thrombozytenaggregation in diesen ex vivo Proben wird nach der Methode von Born und Cross (J. Physiol. 170, 397 (1964)) photometrisch gemessen. Die nach Collagenstimulation gemessene größte Lichtdurchlässigkeit des plättchenreichen Plasmas wird mit dem Referenzwert verglichen, um die Hemmung der Aggregation zu den verschiedenen Zeitpunkten der Blutentnahme nach Substanzgabe relativ zum Referenzwert zu bestimmen.

[2] = Tolerability after intravenous administration to mice; assay type: in vivo, Mäusen; conditions: 30 mg/kg, 3 mice each

Row | IC50 (Humanthrombozyten) | EC50 (Thrombozytenaggregation) | SMILES | Dauer der Hemmung der Collagen-induzierten Thrombozytenaggregation ex vivo [1] | gestorbene Tiere [2]
1 | 2000 nM | 5800 nM | O=C(O)CC[C@H]1CC[C@H](NC(=O)c2cccc(C3CCNCC3)c2)CC1 [Beispiel 3.4, 4-[3-[[trans-4-(2-Carboxy-ethyl)-cyclohexyl]-aminocarbonyl]-phenyl]-piperidin-hydrochlorid] |  | 
2 |  |  | CCCCS(=O)(=O)NC(Cc1ccc(NC(=O)c2cccc(C3CCNCC3)c2)cc1)C(=O)OC.Cl (stereo not shown) [5(2), 4-[3-[[4-[2-(n-Butansulfonylamino)-2-(methoxycarbonyl)-ethyl]-phenyl]-aminocarbonyl]-phenyl]-piperidin-hydrochlorid] | > 2 Stunden | 
3 | 4500 nM | 3300 nM | CCCCS(=O)(=O)NC(Cc1ccc(NC(=O)c2ccc(C3CCNCC3)cc2)cc1)C(=O)OC (stereo not shown) [Beispiel 2.2, 4-[4-[[4-[2-(n-Butansulfonylamino)-2-(methoxycarbonyl)-ethyl]-phenyl]-aminocarbonyl]-phenyl]-piperidin-hydrochlorid] |  | 
4 | 17 nM | 260 nM | CCCCS(=O)(=O)NC(Cc1ccc(NC(=O)c2ccc(C3CCNCC3)cc2)cc1)C(=O)O (stereo not shown) [Beispiel 3.3, 4-[4-[[4-[2-(n-Butansulfonyl-amino)-2-carboxy-ethyl]-phenyl]-aminocarbonyl]-phenyl]-piperidin-hydrochlorid] |  | 
5 | 2900 nM | 5600 nM | COC(=O)CC[C@H]1CC[C@H](NC(=O)c2cccc(C3CCNCC3)c2)CC1 [Beispiel 5, 4-[3-[[trans-4-[2-(Methoxycarbonyl)-ethyl]-cyclohexyl]-aminocarbonyl]-phenyl]-piperidin-hydrochlorid] |  | 
6 | 14 nM | 120 nM | CCCCS(=O)(=O)NC(Cc1ccc(NC(=O)c2cccc(C3CCNCC3)c2)cc1)C(=O)O (stereo not shown) [Beispiel 3.6, 4-[3-[[4-[2-(n-Butansulfonylamino)-2-carboxy-ethyl]-phenyl]-aminocarbonyl]-phenyl]-piperidin-hydrochlorid] |  | 
7 | 1400 nM | 2400 nM | O=C(O)CCc1ccc(NC(=O)c2ccc(C3CCNCC3)cc2)cc1 [Beispiel 3.1, 4-[4-[[4-(2-Carboxy-ethyl)-phenyl]-aminocarbonyl]-phenyl]-piperidin-hydrochlorid] |  | 
8 | > 100000 nM | 3300 nM | COC(=O)CCc1ccc(NC(=O)c2ccc(C3CCNCC3)cc2)cc1 [Beispiel 2.1, 4-[4-[[4-[2-(Methoxycarbonyl)-ethyl]-phenyl]-aminocarbonyl]-phenyl]-piperidin-hydrochlorid] |  | 

Row | SMILES | IC50 (Humanthrombozyten) | EC50 (Thrombozytenaggregation) | Dauer der Hemmung der Collagen-induzierten Thrombozytenaggregation ex vivo [1] | gestorbene Tiere [2]
9 | COC(=O)CC[C@H]1CC[C@H](NC(=O)c2ccc(C3CCNCC3)cc2)CC1.Cl [Beispiel 2, 4-[4-[[trans-4-[2-(Methoxycarbonyl)-ethyl]-cyclohexyl]-aminocarbonyl]-phenyl]-piperidin-hydrochlorid] | 1100 nM | 840 nM | > 2 Stunden | keine Tieren gestorben
10 | Cl.O=C(O)CC[C@H]1CC[C@H](NC(=O)c2ccc(C3CCNCC3)cc2)CC1 [Beispiel 3, 4-[4-[[trans-4-(2-Carboxy-ethyl)-cyclohexyl]-aminocarbonyl]-phenyl]-piperidin-hydrochlorid] | 190 nM | 260 nM |  | keine Tieren gestorben
